Tests used:
[1] = system: autophagosomes in NSC34 cells; assay: Autophagosome number (LC3-EGFP dots, electron microscopy) in NSC34 cells; type: cell-based; settings: shXBP-1 cells, 16 h with 10 mM 3-MA
Experimental: Lysosomes or acidic compartments were visualized with two different assays. Living cells were stained with 200 nM lysotraker or 600 nM Acridine orange for 45 min at 37 C and 5% CO2. Cells were washed three times with cold PBS and then fixed for 30 min with 4% formaldehyde on ice, then maintained in PBS containing 0.4% formaldehyde for visualization on a confocal microscope. Autophagosomes were visualized after the expression of LC3-EGFP (Kabeya et al., 2000. EMBO J. 19, 5720-5728) or LC3-dsRED after the transient transfection of low amount of DNA (⅓ amount of recommended concentrations by transfection kit). As control experiments, cells were treated with 10 mM 3-MA autophagy inhibitor. All quantifications were performed at least in a total of 150 cells performed in duplicate for each independent experiment.
Autophagosomes were also visualized by transmission electron microscopy. Cells were fixed with 1.25% formaldehyde, 2.5% glutaraldehyde, 0.03% picric acid in 100 mM sodium cacodylate buffer. After washing with 100 mM sodium cacodylate buffer, tissues were treated for 1 h with 1% osmium tetroxide and 1.5% potassium ferrocyanide, and then 30 min with 0.5% uranyl acetate in 50 mM maleate buffer, pH 5.15. After dehydration in ethanol, cells were treated for 1 h in propylenoxide and then embedded in Epon/Araldite resin. […]

[2] = system: mutant SOD1 aggregates in NSC34 cells; assay: High molecular weight, detergent insoluble SOD1 aggregates in NSC34 cells by Western blot; type: cell-based, human; settings: shXBP-1 and shIRE-1 alpha NSC34 cells expressing SOD1^G85R; 16 h with 10 mM 3-MA or 10 μM wortmannin
Description: Stable motoneuron cell lines with reduced levels of XBP-1, IRE1α, Beclin-1 and EDEM were generated using methods previously described (Hetz et al., 2007) by targeting the respective mRNA with shRNA using the lentiviral expression vector pLKO.1 and puromycin selection. As control empty vector or a shRNA against the luciferase gene were employed. Constructs were generated by The Broad Institute (Boston, USA) based on different criteria for shRNA design (see broad.mit.edu/genome_bio/trc/rnai.html). A total of five different constructs for each gene were screened and the most efficient one was selected for further studies. Targeting sequences identified for the mouse XBP-1, IRE1α, Beclin-1 and EDEM mRNA are 5′-[…]-3′,5′-[…]-3′,5′-[…]-3′,5′-[…]-3′,5′-[…]-3′,5′-[…]-3′, 5′-[…]-3′ and 5′-[…]-3′, respectively. […]
Assays using the transient expression of human SOD1^WT and the mutants SOD1^G93A and SOD1^G85R as EGFP fusion proteins were developed. These constructs were employed to visualize and quantify the formation of intracellular SOD1 inclusions in living cells by fluorescent confocal microscopy. […] SOD1 oligomers were visualized in total cell extracts prepared in RIPA buffer and sonication, and then analyzed by Western blot. […]

## Cn1cnc(N)c2ncnc1-2 [3-MA, 3-methyladenine]
[1]
  number of cells containing more than four autophagosomes per cell after 3-MA: decreased
[2]
  SOD1 aggregation after PI3-kinase / autophagy inhibitor: recovery of mutant SOD1 aggregation in knockdown cells

— patent US20110142799A1, “MODULATION OF NEURODEGENERATIVE DISEASE BY MODULATING XBP-1 ACTIVITY” (PRESIDENT AND FELLOWS OF HARVARD COLLEGE, priority 2008, published 2011)
